# From patent US20250353819A1, “ARYL HYDANTOIN COMPOUNDS AND METHODS OF USE” (priority 2022, published 2025)
# Values joined by “and” are separate entries in the source; they are usually repeats but may differ in a detail not shown here. Equal values may be shown once. Read-outs that look alike come from different tables or passages of the source.
# Experiment: Pharmacokinetics in male Sprague Dawley rats
# Format: in vivo, rat
# Conditions: for Cmax: read-out: Plasma Cmax; for half-life: plasma
# Method: IV and oral formulations were prepared using the same method. On the day of dosing the solid compound was dissolved in DMSO prior to addition of a saline solution (0.9% w/v). The samples were then mixed using vortexing producing colourless solutions. The IV formulation was filtered through a 0.22 μm syringe filter prior to dosing and the oral formulation was dosed without filtration.
# Samples of arterial blood were collected up to 168 h post-dose. Urine samples were not collected as animals were housed in bedded cages. Arterial blood was collected directly into borosilicate vials (at 4° C.) containing heparin as anticoagulant. Once collected, blood samples were centrifuged, supernatant plasma was removed and stored frozen (−80° C.) until analysis by LC-MS. A summary of the bioanalytical method and assay validation details is included in Tables 14 and 15.
# Plasma concentration versus time data were analysed using non-compartmental methods (PKSolver Version 2.0). Standard calculations for each pharmacokinetic parameter are listed below.
smiles,measurement,setting,value
"CC1(C)NC(=O)N(c2ccc(F)c(C(C)(F)F)c2)C1=O [Compound IC, 3-(3-(1,1-difluoroethyl)-4-fluorophenyl)-5,5-dimethylimidazolidine-2,4-dione]",Plasma Concentration,"IV 1 mg/kg, 0.17 h, individual rats",1292 ng/mL and 1300 ng/mL and 908 ng/mL
same,Plasma Concentration,"IV 1 mg/kg, 0.17 h, mean",1167 ng/mL
same,Plasma Concentration,"IV 1 mg/kg, 1.17 h, individual rats",728 ng/mL and 549 ng/mL and 529 ng/mL
same,Plasma Concentration,"IV 1 mg/kg, 1.17 h, mean",602 ng/mL
same,Plasma Concentration,"IV 1 mg/kg, 2.17 h, individual rats",701 ng/mL and 669 ng/mL and 469 ng/mL
same,Plasma Concentration,"IV 1 mg/kg, 2.17 h, mean",613 ng/mL
same,Plasma Concentration,"IV 1 mg/kg, 4.17 h, individual rats",640 ng/mL and 662 ng/mL and 420 ng/mL
same,Plasma Concentration,"IV 1 mg/kg, 4.17 h, mean",574 ng/mL
same,Plasma Concentration,"IV 1 mg/kg, 7.17 h, individual rats",569 ng/mL and 641 ng/mL and 493 ng/mL
same,Plasma Concentration,"IV 1 mg/kg, 7.17 h, mean",568 ng/mL
same,Plasma Concentration,"IV 1 mg/kg, 12.17 h, individual rats",545 ng/mL and 473 ng/mL and 480 ng/mL
same,Plasma Concentration,"IV 1 mg/kg, 12.17 h, mean",499 ng/mL
same,Plasma Concentration,"IV 1 mg/kg, 24.17 h, individual rats",340 ng/mL and 403 ng/mL and 268 ng/mL
same,Plasma Concentration,"IV 1 mg/kg, 24.17 h, mean",337 ng/mL
same,Plasma Concentration,"IV 1 mg/kg, 36.17 h, individual rats",215 ng/mL and 266 ng/mL and 216 ng/mL
same,Plasma Concentration,"IV 1 mg/kg, 36.17 h, mean",232 ng/mL
same,Plasma Concentration,"IV 1 mg/kg, 48.17 h, individual rats",125 ng/mL and 170 ng/mL and 97 ng/mL
same,Plasma Concentration,"IV 1 mg/kg, 48.17 h, mean",130 ng/mL
same,Plasma Concentration,"IV 1 mg/kg, 72.17 h, individual rats",46.8 ng/mL and 62.2 ng/mL and 33.5 ng/mL
same,Plasma Concentration,"IV 1 mg/kg, 72.17 h, mean",47.5 ng/mL
same,Plasma Concentration,"IV 1 mg/kg, 96.17 h, individual rats",11.5 ng/mL and 28.1 ng/mL and 13.6 ng/mL
same,Plasma Concentration,"IV 1 mg/kg, 96.17 h, mean",17.7 ng/mL
same,Plasma Concentration,"IV 1 mg/kg, 120.17 h, individual rats",3.1 ng/mL and 7.0 ng/mL and 2.6 ng/mL
same,Plasma Concentration,"IV 1 mg/kg, 120.17 h, mean",4.2 ng/mL
same,Plasma Concentration,"IV 1 mg/kg, 144.17 h, individual rats",3.0 ng/mL
same,Plasma Concentration,"IV 1 mg/kg, 144.17 h, mean",3.0 ng/mL
same,clearance,"male, Sprague Dawley, rat, in vivo, iv, 1 mg/kg, rats, IV 1 mg/kg, individual rats, read-out: Blood CL",0.664 mL/min/kg
same,Vd,"male, Sprague Dawley, rat, in vivo, iv, 1 mg/kg, rats, IV 1 mg/kg, individual rats, read-out: Blood Vss",0.948 L/kg
same,AUC,"male, Sprague Dawley, rat, in vivo, iv, 1 mg/kg, rats, IV 1 mg/kg, individual rats, read-out: Plasma AUCIV",20900 ng·h/mL
same,clearance,"male, Sprague Dawley, rat, in vivo, iv, 1 mg/kg, rats, IV 1 mg/kg, individual rats, read-out: Plasma CL",0.797 mL/min/kg
same,Vd,"male, Sprague Dawley, rat, in vivo, iv, 1 mg/kg, rats, IV 1 mg/kg, individual rats, read-out: Plasma Vss",1.14 L/kg
same,AUC,"male, Sprague Dawley, rat, in vivo, iv, 1 mg/kg, rats, IV 1 mg/kg, mean (n = 3), read-out: Plasma AUCIV",20600 ng·h/mL
same,clearance,"male, Sprague Dawley, rat, in vivo, iv, 1 mg/kg, rats, IV 1 mg/kg, mean (n = 3), read-out: Plasma CL",0.825 mL/min/kg
same,Vd,"male, Sprague Dawley, rat, in vivo, iv, 1 mg/kg, rats, IV 1 mg/kg, mean (n = 3), read-out: Plasma Vss",1.25 L/kg
same,clearance,"male, Sprague Dawley, rat, in vivo, iv, 1 mg/kg, rats, IV 1 mg/kg, mean, read-out: Blood CL",0.687 mL/min/kg
same,Vd,"male, Sprague Dawley, rat, in vivo, iv, 1 mg/kg, rats, IV 1 mg/kg, mean, read-out: Blood Vss",1.04 L/kg
same,AUC,"male, Sprague Dawley, rat, in vivo, po, 1 mg/kg, rats, PO 1 mg/kg, individual rats, read-out: Plasma AUCoral",23300 ng·h/mL
same,Cmax,"male, Sprague Dawley, rat, in vivo, po, 1 mg/kg, rats, PO 1 mg/kg, individual rats",614 ng/mL
same,AUC,"male, Sprague Dawley, rat, in vivo, po, 1 mg/kg, rats, PO 1 mg/kg, mean (n = 3), read-out: Plasma AUCoral",20400 ng·h/mL
same,Cmax,"male, Sprague Dawley, rat, in vivo, po, 1 mg/kg, rats, PO 1 mg/kg, mean (n = 3)",572 ng/mL
same,Tmax,"male, Sprague Dawley, rat, in vivo, po, 1 mg/kg, rats, PO 1 mg/kg, mean (n = 3), read-out: Tmax",6.7 h
same,half-life,"male, Sprague Dawley, rat, iv, 1 mg/kg, rats, IV 1 mg/kg, individual rats, read-out: Apparent t1/2 (converted)",13 h
same,half-life,"male, Sprague Dawley, rat, iv, 1 mg/kg, rats, IV 1 mg/kg, mean (n = 3), read-out: Apparent t1/2 (converted)",15 h
same,half-life,"male, Sprague Dawley, rat, other: IV and oral, 1 mg/kg, rats, following IV and oral administration 1 mg/kg, read-out: apparent half-life",13 to 19 h
same,half-life,"male, Sprague Dawley, rat, po, 1 mg/kg, rats, PO 1 mg/kg, individual rats, read-out: Apparent t1/2 (converted)",16 h
same,half-life,"male, Sprague Dawley, rat, po, 1 mg/kg, rats, PO 1 mg/kg, mean (n = 3), read-out: Apparent t1/2 (converted)",16 h
same,Plasma Concentration,"oral 1 mg/kg, 1.00 h, individual rats",614 ng/mL and 430 ng/mL and 184 ng/mL
same,Plasma Concentration,"oral 1 mg/kg, 1.00 h, mean",409 ng/mL
